Patent US11932663B2 (CanWell Biotech Limited, priority 2020, dated 2024)

What follows are compounds tested on Human PBMC (assay: TLR7/8 agonists induce cytokine release in human PBMC (ELISA of culture supernatant)). Conditions: 24 h incubation, lowest concentration inducing cytokine at least 2x greater than negative control wells.
Assay type: cell-based
Procedure: Example 8. TLR7/8 Agonists Induce IFN-Gamma and TNF-Alpha Release in Human PBMC
The system is used to assess the cytokines release. Activity is based on the measurement of interferon-gamma (IFN-γ) and tumor necrosis factor-alpha (TNF-α) secreted into culture media.
Fresh human blood was diluted with the same volume of PBS, 15 mL Lymphoprep was added into a Sepmate tube, then 30 mL diluted blood was added on the top gently without disturbing the interface.
The Sepmate tube was centrifuged for 25 min at 1000×g at RT with brake off.
The buffy coat containing peripheral blood mononuclear cells (PBMCs) was collected from Sepmate tube and transferred into a new tube, and the cells were washed with 40 mL PBS twice and centrifuged at 350×g for 5 min.
PBMCs were resuspended in complete culture medium at a density of 2E6/ml.
The compounds are solubilized in dimethyl sulfoxide (DMSO) and diluted into indicated concentration with complete culture medium.
2*10^5 PBMCs (in 100 μL) were added to each well of 96-well flat bottom plate.
2× final concentration of 3-fold serial diluted compounds (in 100 μL) were added to indicated wells and final volume was 200 μL.
The plate was covered with sterile lids, mixed gently and then incubated for 24 h at 37° C./5% CO2 incubator.
Following incubation, the plates was centrifuged for 5 min. at 400×g. The cell-free culture Supernatant was removed into a non-sterile polypropylene plate. Samples are maintained at −80° C. until analysis. The samples were analyzed for TNF-α and IFN-γ by ELSA according to the direction.
TNF-α and IFN-α were analyzed by ELISA. IFN-α concentration was determined by ELISA using a Human IFN-α ELISA Kit from R&D Systems (Catalog #41100-2) and read on VICTOR Nivo™ from PerkinElmer. Results were expressed in pg/mL. TNF-α concentration was determined by ELISA using a Human TNF-alpha ELISA MAX™ Deluxe from BioLegend (Catalog #430205) and read on VICTOR Nivo™ from PerkinElmer. Results were expressed in pg/mL.
Specifically, the MEC of each compound (micromolar) was determined as the lowest concentration of the compound that induced a measured cytokine response at a level ([…]) that was at least 2× greater than that observed with the negative control wells.

| SMILES | MEC to induce cytokine IFN-alpha [µM] | MEC to induce cytokine TNF-alpha [µM] |
| --- | --- | --- |
| CCCCc1nc2c(N)nc3cc(P(=O)(CC)CC)ccc3c2n1OCCCCN [Example 2, (4-amino-1-(4-aminobutoxy)-2-butyl-1H-imidazo[4,5-c]quinolin-7-yl)diethylphosphine oxide] | 0.137 | 11.1 |
| CCCCCCCCCCCCCCCCCC(=O)NCCCCOn1c(CCCC)nc2c(N)nc3cc(P(C)(C)=O)ccc3c21 [Example 3, N-(4-((4-amino-2-butyl-7-(dimethylphosphoryl)-1H-imidazo[4,5-c]quinolin-1-yl)oxy)butyl)stearamide] | 0.015 | 0.015 |
| CCCCCCCCCCCCCCCCCNc1c(NCCCCOn2c(CCCC)nc3c(N)nc4cc(P(=O)(CC)CC)ccc4c32)c(=O)c1=O [Example 7, 3-(4-(4-amino-2-butyl-7-(diethylphosphoryl)-1H-imidazo[4,5-c]quinolin-1-yloxy)butylamino)-4-(heptadecylamino)cyclobut-3-ene-1,2-dione] | 0.015 | 3.7 |
| CCCCCCCCCCCCCCCCCc1cn(CCCCOn2c(CCCC)nc3c(N)nc4cc(P(C)(C)=O)ccc4c32)nn1 [Example 6, (4-amino-2-butyl-1-(4-(4-heptadecyl-1H-1,2,3-triazol-1-yl)butoxy)-1H-imidazo[4,5-c]quinolin-7-yl)dimethylphosphine oxide] | >33.3 | >33.3 |
| CCCCCCCCCCCCCCCCCNc1c(NCCCCOn2c(CCCC)nc3c(N)nc4cc(P(C)(C)=O)ccc4c32)c(=O)c1=O [Example 4] | 1.73 | 11.1 |
| CCCCc1nc2c(N)nc3cc(P(C)(C)=O)ccc3c2n1OCCCCN [Example 1, (4-amino-1-(4-aminobutoxy)-2-butyl-1H-imidazo[4,5-c]quinolin-7-yl)dimethylphosphine oxide] | 0.046 | 3.7 |
